Where two headings read alike, the source gives them in different places.

Assay [1] deals with T1, Btbc1 (bovine heart mitochondrial cyt bc1, Complex III) (Bos taurus, UniProt P00157+P13272). To be noted: cited from earlier work; for incubation time to reach full inhibitory capacity: classic compounds, typical.
For assay [2], the target named is T2, Rsbc1 (cyt bc1 from Rhodobacter sphaeroides) (Cereibacter sphaeroides, UniProt Q02761+Q02762).
T2 sequence (Q02761 1-445): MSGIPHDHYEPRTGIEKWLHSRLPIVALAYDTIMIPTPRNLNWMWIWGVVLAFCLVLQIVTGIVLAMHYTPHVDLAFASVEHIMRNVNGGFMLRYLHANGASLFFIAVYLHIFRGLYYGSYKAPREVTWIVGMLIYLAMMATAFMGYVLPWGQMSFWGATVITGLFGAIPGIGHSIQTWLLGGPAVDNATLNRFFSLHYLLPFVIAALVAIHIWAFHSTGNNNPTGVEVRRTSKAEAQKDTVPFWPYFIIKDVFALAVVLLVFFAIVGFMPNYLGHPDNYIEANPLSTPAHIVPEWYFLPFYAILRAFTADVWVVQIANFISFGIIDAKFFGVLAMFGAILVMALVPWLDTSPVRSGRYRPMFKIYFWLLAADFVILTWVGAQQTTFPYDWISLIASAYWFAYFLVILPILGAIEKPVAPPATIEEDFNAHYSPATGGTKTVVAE
T2 sequence (Q02762 1-187): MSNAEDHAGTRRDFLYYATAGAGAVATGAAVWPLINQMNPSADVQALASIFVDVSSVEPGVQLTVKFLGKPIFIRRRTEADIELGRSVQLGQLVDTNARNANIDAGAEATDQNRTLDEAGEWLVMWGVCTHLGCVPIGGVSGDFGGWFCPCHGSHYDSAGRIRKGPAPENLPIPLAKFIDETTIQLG
T2 sequence (Q02760 23-285 partner): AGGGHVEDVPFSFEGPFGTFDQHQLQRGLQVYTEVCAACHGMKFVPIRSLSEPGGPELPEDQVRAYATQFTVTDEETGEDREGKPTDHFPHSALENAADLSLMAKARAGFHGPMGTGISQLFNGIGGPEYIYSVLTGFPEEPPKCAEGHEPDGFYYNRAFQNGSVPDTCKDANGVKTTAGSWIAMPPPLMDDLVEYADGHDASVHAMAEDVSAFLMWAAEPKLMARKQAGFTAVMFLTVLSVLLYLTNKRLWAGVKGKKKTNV
To be noted: read-out: half-maximum inhibition (IC50); previous work; cited from earlier work.

Assay [3] relates to yeast cyt b L275F mutation. To be noted: cited from earlier work.
Assay [4] has as its target T1, Btbc1 (bovine heart mitochondrial cyt bc1, Complex III). Nature of the assay: Inhibition of bovine heart mitochondrial cyt bc1 activity. Format: biochemical. The settings on record: IC50, incubation time 5 minutes; cyt c reduction.
In assay [5] the test system is wild-type P. falciparum-infected erythrocytes. The settings on record: cited from earlier work.
Assay [6] has as its system P. falciparum cyt b mutant parasites (F264L, A122T, Y268S). To be noted: cyt b Y268S mutant parasites of the 106/1 line; cited from earlier work.

Usually IC50 stands for the midpoint of a concentration-inhibition curve. In the case of `C[C@@]1(c2ccc(Oc3ccccc3)cc2)OC(=O)N(Nc2ccccc2)C1=O` (racemic) [famoxadone], the 50% inhibitory concentration (IC50) in assay [1] (read-out: half-maximum inhibition (IC50), previous work) was 418 nM; in assay [2] it was 1.4 nM. Moreover, in assay [3], the “reduction in the IC50 value” is given as 20 fold.
On to `CCCCCCCCCCCC1=C(O)C(=O)c2scnc2C1=O` [UHDBT, 5-n-undecyl-6-hydroxy-4,7-dioxobenzothiazole], for which, in assay [1], the “incubation time to reach full inhibitory capacity” value was “less than 5 min”.
A word on the EC50: it is the concentration giving half of the maximal effect. Consider `O=C1C(O)=C([C@H]2CC[C@H](c3ccc(Cl)cc3)CC2)C(=O)c2ccccc21` [atovaquone], for which the IC50 is 2630 nM in assay [4] and around 13 nM in assay [5] (P. falciparum wild-type lines). Further, the concentration for a half-maximal effect (EC50) in assay [5] (wild-type parasites of the 106/1 line) is 1.1 nM; in assay [6], above 6.76 µM.
`CO/C(=C/C(N)=O)[C@H](C)[C@H](/C=C/c1csc(-c2csc([C@@H](C)/C=C/C=C/C(C)C)n2)n1)OC` [myxothiazol]: the “incubation time to reach full inhibitory capacity” value in assay [1] was “less than 5 min”.
Molecule `C/C=C(C)/C=C/C=C/[C@H](OC)[C@@H](C)[C@@H](OC)[C@@H](C)CCc1oc2c(O)c(OC)cc(OC)c2c(=O)c1C` [stigmatellin] displayed a half-inhibitory concentration (IC50) in assay [4] of 1 nM. In assay [1], the “incubation time to reach full inhibitory capacity” value is on record as “less than 5 min”.
